Laboratory results as given in patent US11629146B2, “Substituted [1,2,4]triazolo[4,3-a]pyrazines as modulators of sodium channel activity” (Praxis Precision Medicines, Inc., priority 2016, dated 2023).
Read-outs that look alike come from different tables or passages of the source.

Experiments:
human NaV1.6 (hNaV1.6) = human NaV1.6 (hNaV1.6) (Homo sapiens (Human), UniProt Q9UQD0); test: INaL inhibition at hNaV1.6, PatchXpress electrophysiology; format: cell-based
Method: Functional characterization of exemplary compounds to modulate INaL expressed by the Nay 1.6 voltage-gated sodium channel was accomplished using the PatchXpress™ high throughput electrophysiology platform (Molecular Devices, Sunnyvale, Calif.). HEK-293 cells expressing recombinant, human NaV1.6 (hNaV1.6) were grown in DMEM/high-glucose Dulbecco's modified, 10% FBS, 2 mM sodium pyruvate, 10 mM HEPES and 400 μg/mL G418. Cells were grown to 50%-80% confluency prior to harvesting. […] The onboard liquid handling facility of the PatchXpress was used for dispensing cells and applying test compounds. Nay late currents were evoked by the application of 300 nM ATX-II. […] INaL amplitude and stability were determined by analyzing the mean current amplitude over the final 20 ms of the test pulse. […] Percent steady-state inhibition of INaL was calculated as: [(INaL_compound)/(INaL_control)]*100, where INaL_compound and INaL_control represent INaL recorded in the presence or absence of compound, respectively.

CYP1A2 = CYP1A2 (Homo sapiens (Human), UniProt P05177); test: CYP1A2 inhibition in human liver microsomes; format: in vitro ADME; conditions: pooled human liver microsomes, marker substrate Phenacetin
Method: The specific marker metabolites are measured with LC/MS/MS. The remaining enzymatic activities and inhibitory potency IC50 are determined. Microsomes are removed out of the −80° C. freezer to thaw on ice and 20 μL of the substrates solution added to the corresponding wells. […] Then 158 μL of the HLM working solution was added to all wells of the incubation plate. The plate was pre-warmed for about 10 min using a 37° C. water bath. Then 20 μL of the NADPH cofactor solution was added to all incubation wells, mixed and incubated for 10 minutes at 37° C. water bath. The reaction is terminated by adding 400 μL cold stop solution (200 ng/mL Tolbutamide and 200 ng/mL Labetalol in ACN). […] Finally 200 μL of the supernatant was transferred to 100 μL HPLC water, shaken for 10 min and analyzed by LC/MS/MS. […] Equation for three parameters logistic sigmoidal curve: […]

[1] = PK rat clearance experiment; format: in vivo; conditions: male Sprague-Dawley rats, single intravenous bolus 0.5 mg/kg, plasma
Method: The IV dosing solution was prepared freshly on the dosing day. Test article (0.5 mg/kg) was prepared in a vehicle, for example, consisting of 5% DMSO/5% solutol/90% water. The concentrations of test article in all dosing solutions were determined by HPLC/UV. Three male Sprague-Dawley rats were used in this study. The animals were confirmed healthy before being assigned to the study. Each animal was given a unique identification number which was marked on the tail or the ear, and written on the cage card. All animals were fasted overnight before dosing and the food was returned at 4 hours post dosing. Water was provided to all animals ad libitum during the fasting period. Animals were weighed prior to dose administration on the day of dosing for calculating the actual dose volume. The body weights were in the range from 212 g to 223 g for males. All animals received test article by single intravenous bolus administration at 0.5 mg/kg. Approximately 0.2 mL blood was collected at each time point via jugular vein from each study animal. […] All blood samples were transferred into pre-labeled plastic micro centrifuge tubes and mixed with the pre-loaded anti-coagulant K2EDTA (5 μL, 0.5 M). Plasma samples were then prepared by centrifuging the blood samples. All plasma samples were then quickly frozen over dry ice and kept at −60° C. or lower until LC/MS/MS analysis. The concentrations of test article in plasma were determined by using a quantitative bioanalytical LC/MS/MS method. The lower limit of quantitation (LLOQ) for test article in plasma was 1 ng/mL, and the upper limit of quantitation (ULOQ) in plasma was 3000 ng/mL. The plasma concentration of test article in rats was subjected to a non compartmental pharmacokinetic analysis by using the Phoenix WinNonlin software (version 6.3, Pharsight, Mountain View, Calif.). The linear/log trapezoidal rule was applied in obtaining the PK parameters.

[2] = target: human NaV1.5 late sodium current (INaL) (Homo sapiens (Human), UniProt Q14524); test: INaL inhibition at hNaV1.5, PatchXpress electrophysiology; format: cell-based; conditions: HEK-293 cells expressing recombinant human NaV1.5, HEK-293 cells expressing hNaV1.5, late current evoked by 300 nM ATX-II, read-out: INaL v1.5 (1 μM, % Inhibition)
[3] = HEK293, 1 μM, HEK-293 cells expressing hNaV1.6, late current evoked by 300 nM ATX-II, read-out: INaL v1.6 (1 μM, % Inhibition)
[4] = HEK293, read-out: INaL v1.6 (1 μM, % Inhibition)

Sequence of human NaV1.5 late sodium current (INaL) (Q14524 whole entry): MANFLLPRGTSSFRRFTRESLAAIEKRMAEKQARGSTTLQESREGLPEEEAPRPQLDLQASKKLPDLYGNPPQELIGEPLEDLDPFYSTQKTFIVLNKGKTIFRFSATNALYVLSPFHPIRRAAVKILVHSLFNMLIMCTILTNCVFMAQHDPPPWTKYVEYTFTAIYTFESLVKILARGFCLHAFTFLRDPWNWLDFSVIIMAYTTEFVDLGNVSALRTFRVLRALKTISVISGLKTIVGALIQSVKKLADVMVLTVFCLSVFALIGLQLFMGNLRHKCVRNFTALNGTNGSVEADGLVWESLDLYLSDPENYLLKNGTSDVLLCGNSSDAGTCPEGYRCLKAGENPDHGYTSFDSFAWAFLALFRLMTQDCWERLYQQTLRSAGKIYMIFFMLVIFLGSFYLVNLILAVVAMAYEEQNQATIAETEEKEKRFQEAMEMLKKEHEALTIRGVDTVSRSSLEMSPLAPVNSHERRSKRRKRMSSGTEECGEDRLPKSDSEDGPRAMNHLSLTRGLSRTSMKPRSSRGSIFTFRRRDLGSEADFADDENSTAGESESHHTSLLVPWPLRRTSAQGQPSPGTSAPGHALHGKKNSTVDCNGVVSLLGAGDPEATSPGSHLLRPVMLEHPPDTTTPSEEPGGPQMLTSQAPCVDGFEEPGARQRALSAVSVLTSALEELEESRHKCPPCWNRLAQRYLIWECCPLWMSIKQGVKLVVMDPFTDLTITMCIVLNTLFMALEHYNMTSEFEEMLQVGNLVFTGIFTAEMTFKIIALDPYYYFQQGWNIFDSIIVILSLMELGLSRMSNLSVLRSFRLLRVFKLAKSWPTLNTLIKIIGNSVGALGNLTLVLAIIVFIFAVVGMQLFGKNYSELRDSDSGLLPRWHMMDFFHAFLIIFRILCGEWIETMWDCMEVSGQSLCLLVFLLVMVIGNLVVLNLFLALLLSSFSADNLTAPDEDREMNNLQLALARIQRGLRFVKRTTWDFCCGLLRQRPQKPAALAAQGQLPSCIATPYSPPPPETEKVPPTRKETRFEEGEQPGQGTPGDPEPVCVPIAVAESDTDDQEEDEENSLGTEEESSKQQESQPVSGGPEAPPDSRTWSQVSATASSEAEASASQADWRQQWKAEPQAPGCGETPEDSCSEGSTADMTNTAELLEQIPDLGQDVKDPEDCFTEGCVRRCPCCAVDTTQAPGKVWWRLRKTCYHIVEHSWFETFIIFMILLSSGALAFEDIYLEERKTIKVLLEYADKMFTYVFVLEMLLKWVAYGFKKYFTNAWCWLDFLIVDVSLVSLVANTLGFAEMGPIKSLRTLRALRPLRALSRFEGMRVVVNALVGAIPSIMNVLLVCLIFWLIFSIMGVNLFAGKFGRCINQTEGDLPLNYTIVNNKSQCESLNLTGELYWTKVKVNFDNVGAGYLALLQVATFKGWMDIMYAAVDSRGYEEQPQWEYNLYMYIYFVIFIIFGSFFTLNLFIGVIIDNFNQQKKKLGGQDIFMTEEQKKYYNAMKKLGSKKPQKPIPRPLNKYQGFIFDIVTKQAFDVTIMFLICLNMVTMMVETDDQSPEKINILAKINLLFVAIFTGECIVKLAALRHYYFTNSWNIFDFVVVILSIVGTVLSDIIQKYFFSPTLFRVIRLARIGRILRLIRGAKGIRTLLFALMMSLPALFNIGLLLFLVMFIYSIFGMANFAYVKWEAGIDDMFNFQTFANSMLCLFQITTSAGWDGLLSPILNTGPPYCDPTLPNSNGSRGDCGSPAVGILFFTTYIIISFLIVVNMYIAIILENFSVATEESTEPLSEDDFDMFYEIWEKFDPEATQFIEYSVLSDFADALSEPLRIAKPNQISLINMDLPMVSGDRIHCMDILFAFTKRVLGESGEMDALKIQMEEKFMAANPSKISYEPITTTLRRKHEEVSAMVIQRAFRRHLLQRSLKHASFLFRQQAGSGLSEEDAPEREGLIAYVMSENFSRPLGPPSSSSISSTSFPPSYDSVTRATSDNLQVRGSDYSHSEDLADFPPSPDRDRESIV
Sequence of human NaV1.6 (hNaV1.6) (Q9UQD0 whole entry): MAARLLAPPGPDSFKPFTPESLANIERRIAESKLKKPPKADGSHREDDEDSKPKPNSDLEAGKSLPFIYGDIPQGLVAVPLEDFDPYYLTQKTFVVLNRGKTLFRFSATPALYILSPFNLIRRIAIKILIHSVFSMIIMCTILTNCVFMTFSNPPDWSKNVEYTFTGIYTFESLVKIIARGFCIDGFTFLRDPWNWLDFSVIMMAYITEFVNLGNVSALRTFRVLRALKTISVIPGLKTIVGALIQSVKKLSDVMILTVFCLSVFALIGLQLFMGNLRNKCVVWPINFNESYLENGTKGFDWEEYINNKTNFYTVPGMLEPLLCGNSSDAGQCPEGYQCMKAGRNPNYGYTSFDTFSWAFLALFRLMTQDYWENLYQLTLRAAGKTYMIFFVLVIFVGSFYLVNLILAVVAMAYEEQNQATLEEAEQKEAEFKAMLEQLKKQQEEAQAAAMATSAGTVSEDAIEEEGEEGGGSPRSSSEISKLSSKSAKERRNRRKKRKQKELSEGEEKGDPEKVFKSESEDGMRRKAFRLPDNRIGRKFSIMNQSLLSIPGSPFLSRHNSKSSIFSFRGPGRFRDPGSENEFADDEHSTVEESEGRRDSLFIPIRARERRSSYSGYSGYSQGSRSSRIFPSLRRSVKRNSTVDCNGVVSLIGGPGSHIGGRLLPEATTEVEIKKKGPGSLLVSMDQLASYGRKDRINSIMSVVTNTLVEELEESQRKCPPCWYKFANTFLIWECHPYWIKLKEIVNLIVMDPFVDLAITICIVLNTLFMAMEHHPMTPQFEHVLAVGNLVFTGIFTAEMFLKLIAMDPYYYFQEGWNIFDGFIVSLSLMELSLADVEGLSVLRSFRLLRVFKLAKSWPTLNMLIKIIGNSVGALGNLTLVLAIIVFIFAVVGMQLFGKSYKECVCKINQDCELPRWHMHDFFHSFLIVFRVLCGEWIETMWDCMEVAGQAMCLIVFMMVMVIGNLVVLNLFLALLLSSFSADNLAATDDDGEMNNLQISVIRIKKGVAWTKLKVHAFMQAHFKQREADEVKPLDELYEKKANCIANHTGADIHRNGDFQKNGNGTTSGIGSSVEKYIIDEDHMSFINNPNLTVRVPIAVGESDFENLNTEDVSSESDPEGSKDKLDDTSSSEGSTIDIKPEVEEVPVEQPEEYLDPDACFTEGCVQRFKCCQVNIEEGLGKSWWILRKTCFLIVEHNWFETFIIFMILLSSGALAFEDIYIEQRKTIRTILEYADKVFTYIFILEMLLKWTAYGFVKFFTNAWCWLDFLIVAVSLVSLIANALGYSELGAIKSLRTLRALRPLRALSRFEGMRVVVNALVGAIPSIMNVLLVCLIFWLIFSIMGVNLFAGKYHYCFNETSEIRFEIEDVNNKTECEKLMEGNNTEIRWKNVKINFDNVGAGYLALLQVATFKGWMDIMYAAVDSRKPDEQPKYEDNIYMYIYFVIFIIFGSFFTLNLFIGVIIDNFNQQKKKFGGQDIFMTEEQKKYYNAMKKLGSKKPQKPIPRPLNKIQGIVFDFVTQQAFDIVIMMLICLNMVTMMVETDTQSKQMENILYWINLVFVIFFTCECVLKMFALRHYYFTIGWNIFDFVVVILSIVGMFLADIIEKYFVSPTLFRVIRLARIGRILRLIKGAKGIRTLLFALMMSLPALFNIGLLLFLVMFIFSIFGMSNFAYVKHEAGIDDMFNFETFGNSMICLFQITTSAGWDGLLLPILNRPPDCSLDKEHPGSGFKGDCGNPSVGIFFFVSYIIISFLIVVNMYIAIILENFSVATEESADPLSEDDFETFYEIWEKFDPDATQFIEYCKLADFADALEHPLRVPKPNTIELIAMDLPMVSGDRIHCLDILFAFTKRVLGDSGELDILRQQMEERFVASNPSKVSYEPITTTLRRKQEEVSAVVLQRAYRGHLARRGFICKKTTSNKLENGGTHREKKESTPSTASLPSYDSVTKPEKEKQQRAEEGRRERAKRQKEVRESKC
Sequence of CYP1A2 (P05177 whole entry): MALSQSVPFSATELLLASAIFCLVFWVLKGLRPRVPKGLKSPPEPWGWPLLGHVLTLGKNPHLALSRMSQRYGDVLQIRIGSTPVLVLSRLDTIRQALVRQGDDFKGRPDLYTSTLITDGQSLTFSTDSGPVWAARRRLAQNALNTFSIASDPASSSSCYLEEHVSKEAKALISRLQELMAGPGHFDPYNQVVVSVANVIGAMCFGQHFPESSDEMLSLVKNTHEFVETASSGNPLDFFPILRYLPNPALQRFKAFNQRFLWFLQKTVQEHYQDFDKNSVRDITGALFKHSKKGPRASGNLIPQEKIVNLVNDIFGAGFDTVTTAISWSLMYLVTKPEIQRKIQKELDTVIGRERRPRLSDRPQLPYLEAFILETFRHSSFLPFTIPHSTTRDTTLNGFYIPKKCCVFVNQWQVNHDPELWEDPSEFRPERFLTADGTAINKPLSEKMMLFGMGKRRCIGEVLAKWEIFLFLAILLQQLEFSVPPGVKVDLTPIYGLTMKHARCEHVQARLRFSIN

Structure (SMILES)	inhibition at 1 µM (human NaV1.6 (hNaV1.6); [3])	IC50 (CYP1A2)	clearance [1]	half-life [1]	inhibition at 1 µM (human NaV1.6 (hNaV1.6); [4])	inhibition at 1 µM [2]
FC(F)(F)c1nnc2ccc(-c3ccc([C@@H]4CC4(F)F)cc3)nn12 (single isomer, unassigned) [Compound 122]	–	< 1 µM	–	–	> 70%	–
C[C@@H](Oc1ncc(-c2cn3c(C(F)(F)F)nnc3cn2)cc1F)C(F)(F)F (single isomer, unassigned) [Compound 124]	> 70%	> 30 µM	15.9 mL/min/kg	6.5 h	–	–
C[C@H](Oc1ncc(-c2cn3c(C(F)(F)F)nnc3cn2)cc1F)C(F)(F)F (single isomer, unassigned) [Compound 125]	> 70%	> 30 µM	–	–	–	–
C[C@@H](Oc1ncc(-c2ccc3nnc(C(F)(F)F)n3n2)cc1F)C(F)(F)F (single isomer, unassigned) [Compound 126]	> 70%	> 30 µM	–	–	–	–
C[C@H](Oc1ncc(-c2ccc3nnc(C(F)(F)F)n3n2)cc1F)C(F)(F)F (single isomer, unassigned) [Compound 127]	> 70%	> 30 µM	–	–	–	–
Cc1cc(C(F)(F)F)ccc1-c1ccc2nnc(C(F)(F)F)n2n1 [Compound 3]	> 70%	1 to 15 µM	6 mL/min/kg	6.7 h	–	> 50%
FC(F)(F)COc1ccc(-c2ccc3nnc(CC(F)(F)F)n3n2)cn1 [Compound 7]	30 to 70%	–	–	–	–	< 50%
FC(F)(F)COc1ccc(-c2ccc3nnc(C(F)(F)C(F)(F)F)n3n2)cn1 [Compound 9]	30 to 70%	–	–	–	–	> 50%
COc1cc(OC(F)(F)F)ccc1-c1ccc2nnc(C3CC(F)(F)C3)n2n1 [Compound 13]	> 70%	–	–	–	–	> 50%
COc1cc(OC(F)(F)F)ccc1-c1ccc2nnc(C(F)F)n2n1 [Compound 16]	> 70%	–	52.3 mL/min/kg	0.49 h	–	> 50%
Fc1ccc(OC(F)(F)F)cc1-c1ccc2nnc(C(F)(F)F)n2n1 [Compound 18]	< 30%	–	–	–	–	< 50%
Fc1c(OC(F)(F)F)cccc1-c1ccc2nnc(C(F)(F)F)n2n1 [Compound 19]	< 30%	–	–	–	–	< 50%
OCc1nnc2ccc(-c3ccc(OC(F)(F)F)cc3)nn12 [Compound 21]	–	–	–	–	< 30%	< 50%
COc1cc(C2(C#N)CC2)ccc1-c1ccc2nnc(C(F)(F)F)n2n1 [Compound 22]	> 70%	–	16.6 mL/min/kg	0.6 h	–	> 50%
Fc1cc(OC(F)(F)F)ccc1-c1ccc2nnc(C(F)(F)F)n2n1 [Compound 23]	> 70%	–	1.4 mL/min/kg	21.9 h	–	> 50%
FC(F)(F)COc1ccc(-c2ccc3nnc(C(F)(F)F)n3n2)cn1 [Compound 30]	> 70%	15 to 30 µM	29 mL/min/kg	0.36 h	–	> 50%
Cc1cc(OC(F)(F)F)ccc1-c1cn2c(C(F)F)nnc2cn1 [Compound 49]	> 70%	15 to 30 µM	7.6 mL/min/kg	8.1 h	–	–
Fc1cc(OC(F)(F)F)ccc1-c1cn2c(C(F)F)nnc2cn1 [Compound 52]	30 to 70%	1 to 15 µM	–	–	–	–
Cc1cc(OC(F)(F)F)ccc1-c1cn2c(C(F)(F)F)nnc2cn1 [Compound 63]	> 70%	15 to 30 µM	8.8 mL/min/kg	10.2 h	–	–
FC1(F)CC(Oc2ccc(-c3ccc4nnc(C(F)(F)F)n4n3)cn2)C1 [Compound 65]	> 70%	> 30 µM	31 mL/min/kg	0.55 h	–	–
Fc1cc(OC(F)(F)F)ccc1-c1cn2c(C(F)(F)F)nnc2cn1 [Compound 72]	< 30%	1 to 15 µM	–	–	–	–
Cc1cc(C(F)(F)F)ccc1-c1cn2c(C(F)(F)F)nnc2cn1 [Compound 73]	30 to 70%	1 to 15 µM	–	–	–	–
CC(C)Oc1ccc(-c2cn3c(C(F)(F)F)nnc3cn2)cc1 [Compound 77]	> 70%	1 to 15 µM	–	–	–	–
Fc1cc(-c2cn3c(C(F)(F)F)nnc3cn2)cnc1OCC(F)(F)F [Compound 78]	30 to 70%	> 30 µM	–	–	–	–
COC(F)(F)c1nnc2ccc(-c3cnc(OCC(F)(F)F)c(F)c3)nn12 [Compound 96]	> 70%	> 30 µM	–	–	–	–
Cc1cc(C2(C#N)CC2)ccc1-c1ccc2nnc(C(F)(F)F)n2n1 [Compound 105]	–	15 to 30 µM	–	–	30 to 70%	–
Fc1cc(-c2ccc3nnc(C(F)(F)F)n3n2)cnc1OCC(F)(F)F [Compound 107]	> 70%	> 30 µM	13.9 mL/min/kg	1.9 h	–	–
COCc1cc(C(F)(F)F)ccc1-c1cn2c(C(F)(F)F)nnc2cn1 [Compound 113]	> 70%	1 to 15 µM	–	–	–	–

The next lines start with results.

inhibition at 1 µM (human NaV1.6 (hNaV1.6); [3])	IC50 (CYP1A2)	clearance [1]	half-life [1]	Structure (SMILES)	inhibition at 1 µM (human NaV1.6 (hNaV1.6); [4])	inhibition at 1 µM [2]
30 to 70%	> 30 µM	–	–	FC(F)(F)Oc1ccc(-c2ccc3nnc(C[C@H]4CCCCO4)n3n2)cc1 (single isomer, unassigned) [Compound 42]	–	–
30 to 70%	> 30 µM	–	–	FC(F)(F)Oc1ccc(-c2ccc3nnc(C[C@@H]4CCCCO4)n3n2)cc1 (single isomer, unassigned) [Compound 43]	–	–
> 70%	–	–	–	FC(F)(F)c1ccc(-c2ccc3nnc(C(F)(F)F)n3n2)cc1 [Compound 1]	–	> 50%
> 70%	–	–	–	Cc1cc(-c2ccc3nnc(C(F)(F)F)n3n2)ccc1OC(F)(F)F [Compound 2]	–	> 50%
30 to 70%	1 to 15 µM	9.2 mL/min/kg	3.2 h	FC(F)(F)Cc1nnc2ccc(-c3ccc(OC(F)(F)F)cc3)nn12 [Compound 6]	–	> 50%
30 to 70%	–	–	–	FC(F)(F)COc1ccc(-c2ccc3nnc(C4CC4)n3n2)cn1 [Compound 8]	–	> 50%
30 to 70%	–	–	–	FC(F)(F)Oc1ccc(-c2ccc3nnc(CC4CCOC4)n3n2)cc1 (stereo not shown) [Compound 10]	–	< 50%
< 30%	–	–	–	FC(F)(F)Oc1ccc(-c2ccc3nnc(CC4CCCO4)n3n2)cc1 (stereo not shown) [Compound 11]	–	< 50%
> 70%	1 to 15 µM	5.1 mL/min/kg	1.4 h	N#CC1(c2ccc(-c3ccc4nnc(C(F)(F)F)n4n3)cc2)CC1 [Compound 12]	–	> 50%
> 70%	–	32.8 mL/min/kg	1.4 h	FC1(F)CC(c2nnc3ccc(-c4ccc(OC(F)(F)F)cc4)nn23)C1 [Compound 14]	–	> 50%
> 70%	–	–	–	COc1cc(OC(F)(F)F)ccc1-c1ccc2nnc(C3CC3(F)F)n2n1 (stereo not shown) [Compound 15]	–	> 50%
30 to 70%	–	–	–	FC(F)(F)Oc1cccc(-c2ccc3nnc(C(F)(F)F)n3n2)c1 [Compound 17]	–	< 50%
> 70%	–	2 mL/min/kg	15.4 h	Fc1cc(-c2ccc3nnc(C(F)(F)F)n3n2)ccc1OC(F)(F)F [Compound 31]	–	> 50%
> 70%	< 1 µM	–	–	COC(F)(F)c1nnc2ccc(-c3ccc(OC(F)(F)F)cc3)nn12 [Compound 41]	–	–
30 to 70%	> 30 µM	39.8 mL/min/kg	0.8 h	FC1(F)CC(Oc2ccc(-c3ccc4nnc(C(F)(F)F)n4n3)cc2)C1 [Compound 59]	–	–
–	1 to 15 µM	–	–	FC(F)(F)Oc1ccc(-c2ccc3nnc(C(F)(F)F)n3n2)cc1 [Compound 108]	–	–
30 to 70%	1 to 15 µM	–	–	FC(F)(F)Oc1ccc(-c2cn3c(C4(F)CC4)nnc3cn2)cc1 [Compound 112]	–	–
> 70%	15 to 30 µM	–	–	COCc1cc(-c2ccc3nnc(C(F)(F)F)n3n2)ccc1OC(F)(F)F [Compound 117]	–	–
> 70%	1 to 15 µM	–	–	Cc1cc(OC(F)(F)F)ccc1-c1ccc2nnc(C(F)F)n2n1 [Compound 136]	–	–
